Experimental data reported in patent US9597407B2, “Targeted antimicrobial moieties” (C3 Jian, Inc., priority 2009, dated 2017).
Entries after “also recorded” stand apart in the source; their conditions may differ. Ends that are not written are not given here.

Columns and labels:
[1] = test system: microorganisms; assay: Morphology, biofilm and growth disruption by peptides (Table 5); assay type: cell-based; design: key: A: Peptide aggregates; B: Less hyphal formation; Clumps; Diffuse clumps and small polyps; F: Diffuse growth; H: Thin; I: Growth inhibition; Microcolony formation; Rippled; Small polyps; Thick; W: Halo formation on top, microlonies on bottom
Source text: In certain embodiments peptides that induce alterations in phenotype or other biological activities can also be used as antimicrobial effector moieties.

[2] = test system: bacteria; assay: Binding of targeting peptides to microorganisms (Table 3); conditions: preferably 1x PBS
[3] = peptide binding in aqueous buffers that varied depending on peptide solubility
[4] = microorganism bound by the targeting peptide, binding in aqueous buffers chosen by peptide solubility
[5] = microorganism the targeting peptide binds, binding in aqueous buffers that varied with peptide solubility
[6] = peptide binding in aqueous buffers varied by peptide solubility

In the case of “PF-659 (chain 1 TVIST; chain 2 TVIST; Peptide with targeting and/or antimicrobial activity)”, the “Organism, effect (morphology, biofilm and growth disruption)” value ([1]; B. subtilis) is reported as “B. subtilis (H)”, the “Organism, effect (morphology, biofilm and growth disruption)” value ([1]; MRSA) is reported as “MRSA (R)” and the “Organism, effect (morphology, biofilm and growth disruption)” value ([1]; S. epidermidis) is reported as “S. epidermidis (M)”. For the same substance, the “Organism, effect (morphology, biofilm and growth disruption)” value ([1]; S. pneumoniae) was “S. pneumoniae (C)” and the “Target(s) (microorganism bound by the targeting peptide)” value [2, 3] was “Mycobacteria spp”.

With LSEMERRRLRKRA-NH2 [PF-529] the “Organism, effect (morphology, biofilm and growth disruption)” value ([1]; S. pneumoniae) was “S. pneumoniae (H)” and the “Target(s) (microorganisms bound by the targeting peptide)” value [2, 3] was “S. epidermidis and E. coli and C. albicans and MRSA and S. pneumoniae and E. faecalis and C. jeikeium”.

In the case of “PF-776 (VSILLYLSATIILPNVLRLLVARAIIVRV; Peptide with targeting and/or antimicrobial activity)”, the “Organism, effect (morphology, biofilm and growth disruption)” value ([1]; E. coli) is reported as “E. coli (C)”, the “Organism, effect (morphology, biofilm and growth disruption)” value ([1]; M. luteus) is reported as “M. luteus (C)” and the “Organism, effect (morphology, biofilm and growth disruption)” value ([1]; MRSA) is reported as “MRSA (D)”. For the same substance, the “Organism, effect (morphology, biofilm and growth disruption)” value ([1]; S. epidermidis) was “S. epidermidis (D)”, the “Organism, effect (morphology, biofilm and growth disruption)” value ([1]; S. mutans) was “S. mutans (D)” and the “Organism, effect (morphology, biofilm and growth disruption)” value ([1]; S. pneumoniae) was “S. pneumoniae (C)”. The “Target(s) (microorganism bound by the targeting peptide)” value [2, 3] was “S. epidermidis and M. luteus and P. mirabilis and C. albicans and MRSA and S. pneumoniae and E. faecalis”.

“PF-690 (chain 1 MIPLAGDPVSSHRTVEFGVLGTYLVSGGSL; chain 2 MIPLAGDPVSSHRTVEFGVLGTYLVSGGSL; Peptide with targeting and/or antimicrobial activity)” was tested, and the “Organism, effect (morphology, biofilm and growth disruption)” value ([1]; E. faecalis) was “E. faecalis (R)”, the “Organism, effect (morphology, biofilm and growth disruption)” value ([1]; MRSA) was “MRSA (R)” and the “Organism, effect (morphology, biofilm and growth disruption)” value ([1]; S. epidermidis) was “S. epidermidis (R)”. The “Organism, effect (morphology, biofilm and growth disruption)” value ([1]; S. pneumoniae) was “S. pneumoniae (M)” and the “Target(s) (microorganism bound by the targeting peptide)” value [2, 3] was “Mycobacteria spp”.

“PF-188 (ARTFAGRLGTRYFGGLMRSTKA; Peptide with targeting and/or antimicrobial activity)” was tested, and the “Organism, effect” value ([1]; C. jeikeium) was “C. jeikeium (H)” and the “Target(s)” value [2, 4] was “S. epidermidis and M. luteus and E. coli and C. albicans and MRSA and E. faecalis”.

In the case of “PF-413 (TFAGSIKIGVPDLVHVTFNCKR; Peptide with targeting and/or antimicrobial activity)”, the “Organism, effect” value ([1]; E. coli) is reported as “E. coli (S)”, the “Organism, effect” value ([1]; MRSA) is reported as “MRSA (C)” and the “Organism, effect” value ([1]; S. epidermidis) is reported as “S. epidermidis (C)”. For the same substance, the “Target(s) (microorganisms bound by the targeting peptide)” value [2, 3] was “P. aeruginosa; also recorded: C. albicans; also recorded: C. jejuni”.

For “PF-C137 (QRMYWFKRGFETGDFSAGDTFAELK; Peptide with targeting and/or antimicrobial activity)”, the “Organism, effect (morphology, biofilm and growth disruption)” value ([1]; F. nucleatum) was “F. nucleatum (T)” and the “Target(s) (microorganism bound by the targeting peptide)” value [2, 3] was “A. naeslundii; also recorded: F. nucleatum; also recorded: P. gingivalis; also recorded: S. mutans”.

With “PF-C091 (ASNTPRFVRLTLFNFYSKIWNVTHLFLFNNL; Peptide with targeting and/or antimicrobial activity)” the “Organism, effect (morphology, biofilm and growth disruption)” value ([1]; F. nucleatum) was “F. nucleatum (T)” and the “Target(s) (microorganism bound by the targeting peptide)” value [2, 3] was “A. naeslundii; also recorded: F. nucleatum; also recorded: P. gingivalis; also recorded: S. mutans; also recorded: T. denticola”.

In the case of “PF-427 (YVLEYHGLRATQDVDAFMAL; Peptide with targeting and/or antimicrobial activity)”, the “Organism, effect (morphology, biofilm and growth disruption)” value ([1]; E. coli) is reported as “E. coli (C)”, the “Organism, effect (morphology, biofilm and growth disruption)” value ([1]; E. faecalis) is reported as “E. faecalis (C)” and the “Organism, effect (morphology, biofilm and growth disruption)” value ([1]; MRSA) is reported as “MRSA (C)”. For the same substance, the “Organism, effect (morphology, biofilm and growth disruption)” value ([1]; S. pneumoniae) was “S. pneumoniae (R)” and the “Target(s) (microorganisms bound by the targeting peptide)” value [2, 3] was “M. luteus; also recorded: P. aeruginosa; also recorded: C. albicans; also recorded: C. jejuni”.

With “PF-233 (DANAMARTTIAIVYILALIALTISYSL; Peptide with targeting and/or antimicrobial activity)” the “Organism, effect” value ([1]; S. epidermidis) was “S. epidermidis (C)” and the “Target(s)” value [2, 4] was “S. epidermidis; also recorded: M. luteus; also recorded: P. aeruginosa; also recorded: A. baumannii”.

For “PF-397 (VEDLMEDLNA; Peptide with targeting and/or antimicrobial activity)”, the “Organism, effect” value ([1]; S. epidermidis) was “S. epidermidis (C)” and the “Target(s) (microorganisms bound by the targeting peptide)” value [2, 3] was “S. epidermidis and MRSA and S. pneumoniae and E. faecalis and C. jejuni”.

For “PF-156 (LITAEQPATAPIAGK; Peptide with targeting and/or antimicrobial activity)”, the “Organism, effect” value ([1]; MRSA) was “MRSA (H)” and the “Target(s)” value [2, 4] was “S. epidermidis; also recorded: C. jeikeium”.

In the case of “PF-416 (SKAGLYGKIERSDKRE; Peptide with targeting and/or antimicrobial activity)”, the “Organism, effect” value ([1]; S. pneumoniae) is reported as “S. pneumoniae (H)” and the “Target(s) (microorganisms bound by the targeting peptide)” value [2, 3] is reported as “S. pneumoniae; also recorded: C. jeikeium”.

For “PF-649 (chain 1 CPRYPFVDVGPAGPWRARWRVGS; chain 2 CPRYPFVDVGPAGPWRARWRVGS; Peptide with targeting and/or antimicrobial activity)”, the “Organism, effect (morphology, biofilm and growth disruption)” value ([1]; E. faecalis) was “E. faecalis (R)” and the “Target(s) (microorganism bound by the targeting peptide)” value [2, 3] was “Mycobacteria spp”.

“PF-599 (LFEIFKPKH; Peptide with targeting and/or antimicrobial activity)” was tested, and the “Organism, effect (morphology, biofilm and growth disruption)” value ([1]; C. jejuni) was “C. jejuni (R)”, the “Organism, effect (morphology, biofilm and growth disruption)” value ([1]; E. faecalis) was “E. faecalis (A)” and the “Organism, effect (morphology, biofilm and growth disruption)” value ([1]; MRSA) was “MRSA (C)”. The “Organism, effect (morphology, biofilm and growth disruption)” value ([1]; S. epidermidis) was “S. epidermidis (M)”, the “Organism, effect (morphology, biofilm and growth disruption)” value ([1]; S. pneumoniae) was “S. pneumoniae (R)” and the “Target(s) (microorganism bound by the targeting peptide)” value [2, 3] was “S. epidermidis and P. mirabilis and E. coli and C. albicans and MRSA and S. pneumoniae and C. jeikeium”.

For “PF-144 (RSGQPVGRPSRRAWLR; Peptide with targeting and/or antimicrobial activity)”, the “Organism, effect” value ([1]; S. pneumoniae) was “S. pneumoniae (H)” and the “Target(s)” value [2, 4] was “S. epidermidis and M. luteus and E. coli and C. albicans and MRSA and S. pneumoniae and E. faecalis and C. jeikeium”.

SFMPEIQKNTIPTQMK [PF-512] was tested, and the “Organism, effect (morphology, biofilm and growth disruption)” value ([1]; S. pneumoniae) was “S. pneumoniae (H)” and the “Target(s) (microorganisms bound by the targeting peptide)” value [2, 3] was “S. pneumoniae; also recorded: C. jeikeium”.

In the case of “1T-215 (VCFKDISVFLSPFRGQEVLFCGKAKHSLIYVIGT; Peptide with targeting and/or antimicrobial activity) [Peptide 1T-215]”, the “Target(s)” value [2, 5] is reported as “S. sanguinis”.

In the case of “PF-C034 (HPMPITVRSRKPGPLTAPSEH; Peptide with targeting and/or antimicrobial activity)”, the “Target(s) (microorganism bound by the targeting peptide)” value [2, 3] is reported as “S. mutans; also recorded: E. coli”.

For “PF-281 (SYNTYYNKLIHGQRTPDGM; Peptide with targeting and/or antimicrobial activity)”, the “Target(s)” value [2, 4] was “S. mutans; also recorded: E. coli”.

For “PF-768 (GFRGGKRGGARG; Peptide with targeting and/or antimicrobial activity)”, the “Target(s) (microorganism bound by the targeting peptide)” value [2, 3] was “S. epidermidis; also recorded: S. pneumoniae; also recorded: E. faecalis; also recorded: C. jeikeium”.

For “1T-51 (GKPKRMPAEFIDGYGQALLAGA; Peptide with targeting and/or antimicrobial activity) [Peptide 1T-51]”, the “Target(s) (microorganism bound by the targeting peptide)” value [2, 6] was “S. aureus; also recorded: P. aeruginosa”.

In the case of “PF-C050 (QGLARPVLRRIPL; Peptide with targeting and/or antimicrobial activity)”, the “Target(s) (microorganism bound by the targeting peptide)” value [2, 3] is reported as “A. naeslundii; also recorded: S. mutans”.

In the case of “PF-714 (FVVTQRMLRMYKK; Peptide with targeting and/or antimicrobial activity)”, the “Target(s) (microorganism bound by the targeting peptide)” value [2, 3] is reported as “L. pneumophila”.

“1T-8 (FSVAACGEQRAVTFVLLIEDLI; Peptide with targeting and/or antimicrobial activity) [Peptide 1T-8]” was tested, and the “Target(s) (microorganism bound by the targeting peptide)” value [2, 6] was “M. xanthus”.

With “PF-225 (MNCASPEFKKLMELYK; Peptide with targeting and/or antimicrobial activity)” the “Target(s)” value [2, 4] was “S. epidermidis”.

For “PF-265 (MKTLFFPLFLIIFVLIIQALDQSYQKKIGISKPQKHPEFMQ; Peptide with targeting and/or antimicrobial activity)”, the “Target(s)” value [2, 4] was “S. epidermidis; also recorded: M. luteus; also recorded: A. baumannii”.

In the case of “PF-333 (YMTKKLVEMAEQQMAGKSNR; Peptide with targeting and/or antimicrobial activity)”, the “Target(s)” value [2, 4] is reported as “S. mutans”.

With “1T-267 (RIKEERKNRSYKFFIWRLFDEKTGFI; Peptide with targeting and/or antimicrobial activity) [Peptide 1T-267]” the “Target(s)” value [2, 5] was “A. naeslundii; also recorded: F. nucleatum; also recorded: P. gingivalis; also recorded: T. denticola; also recorded: S. mitis; also recorded: S. mutans; also recorded: S. oralis; also recorded: S. sanguinis”.

“PF-498 (MSEEEEVSEKVYNYLRRNEFFEVRKEEFSA; Peptide with targeting and/or antimicrobial activity)” was tested, and the “Target(s) (microorganisms bound by the targeting peptide)” value [2, 3] was “S. mutans; also recorded: E. coli”.

For “PF-773 (TLKESK; Peptide with targeting and/or antimicrobial activity)”, the “Target(s) (microorganism bound by the targeting peptide)” value [2, 3] was “S. epidermidis; also recorded: C. albicans; also recorded: C. jeikeium”.

With “PF-781 (PLVVVNHRRAERSRG; Peptide with targeting and/or antimicrobial activity)” the “Target(s) (microorganism bound by the targeting peptide)” value [2, 3] was “Mycobacteria spp”.

“PF-055 (GHVFNGNNKRNL; Peptide with targeting and/or antimicrobial activity)” was tested, and the “Target(s)” value [2, 5] was “S. mutans”.

In the case of “PF-783 (FTSEVRGVFTYRVNKAGLITNMRGYWNLDMMTFGNQE; Peptide with targeting and/or antimicrobial activity)”, the “Target(s) (microorganism bound by the targeting peptide)” value [2, 3] is reported as “Mycobacteria spp”.
